Data reported in patent US11166942B2 (PRAXIS BIOTECH LLC, priority 2018, dated 2021).
Like-named read-outs stand apart in the source and are kept apart here.

What was measured:
HEK293T cells = assay: Recovery of protein translation in stressed HEK293T cells; assay type: cell-based, human
From the text: Despite the great potency on the inhibition of ATF4 expression, ISRIB is not able to completely restore protein synthesis when the global protein translation is decreased under these stress conditions. […] Compound 4 has a great potency for the inhibition of ATF4 expression under stress condition (FIG. 3) and is much better at restoring global protein translation under ER stress-mediated repression and going beyond a 100% recovery (FIG. 4).

[1] = system: Chinese hamster ovary (CHO) cells; assay: Protein translation assay (puromycin labelling, CHO cells); assay type: cell-based; details: media alone = 100%; for activity at 1 µM: Cricetulus griseus, CHO
Procedure, shortened: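 CHO cells given compound 2 h at 1 μM (unstressed), or 1 h at 100 nM or 1 μM then co-treated with 300 nM Tg (stressed); 10 μg/ml puromycin pulse 30 min, anti-puromycin western blot with β-actin, densitometry. Normalized to media alone (100%) and, for stressed cells, Tg alone (0%).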

ATF4 = ATF4 expression inhibition assay (ATF4 5'UTR luciferase reporter, Tg-stressed HEK293T cells); assay type: cell-based, human; details: for inhibition at 0.1 µM: read-out: % ATF4 inhibition at 100 nM; for IC50: read-out: ATF4 inhbition IC50; for inhibition at 1 µM: read-out: % ATF4 inhibition at 1 μM
Procedure, shortened: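 HEK293T stably expressing luciferase fused downstream of human full-length ATF4 5′UTR, stressed with 100 nM thapsigargin plus compound (100 nM or 1 μM; IC50 series 0.1 nM to 1 μM) for 3 h at 37° C. Luminescence normalized to Tg alone (0%) and untreated cells (100% inhibition).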

[2] = system: hippocampal slices from transgenic APP/PS1 mice; assay: Electrophysiology and long-term potentiation in hippocampal slices; details: slices from APP/PS1 mouse, 5 μM, 20 min before stimulation (FIGS. 5A, 5B)
Experimental: Hippocampal slices were prepared as described in Ardiles et al., Pannexin 1 regulates bidirectional hippocampal synaptic plasticity in adult mice. Front Cell Neurosci, vol. 8, art. 326 (2014). Six to nine-month-old WT C57BL/6 or transgenic APP/PS1 mice (Jackson Lab 34829-JAX) were deeply anesthetized with isoflurane and their brains were quickly removed. 5-10 slices (350 μm) from each animal were dissected in ice-cold dissection buffer using a vibratome (Leica VT1200S, Leica Microsystems, Nussloch, Germany). Slices were incubated with 5 μM ISRIB (trans-N,N′-1,4-cyclohexanediylbis[2-(4-chlorophenoxy)-acetamide) or a vehicle (complete medium containing 0.1% DMSO) 20 min before conditioning stimulation. Synaptic responses were evoked by stimulating the Schaffer collaterals with 0.2 ms pulses delivered through concentric bipolar stimulating electrodes, and recorded extracellularly in the stratum radiatum of the CA1 subfield. Long-term potentiation (LTP) was induced by four-theta burst stimulation (TBS) (10 trains of four pulses at 100 Hz; 5 Hz inter-burst interval) delivered at 0.1 Hz. LTP magnitude based on field excitatory postsynaptic potential (fEPSP) was calculated as the average (normalized to baseline) of the responses recorded 60 min after conditioning stimulation. Similar experiments can be performed using a test compound in place of ISRIB.

[3] = 2 h, unstressed CHO cells, 1 μM, 2 hours, read-out: % Protein synthesis in unstressed cells (1 μM test compound)
[4] = CHO cells stressed with 300 nM Tg, 1 μM compound, Tg alone = 0%, read-out: % Recovery of protein expression (1 μM test compound)
[5] = Homo sapiens, HEK-293T, 3 h, 100 nM test compound, 100 nM thapsigargin, 3 hours, HEK293T ATF4 luciferase reporter
[6] = Homo sapiens, HEK-293T, 3 h, 100 nM thapsigargin, 3 hours, HEK293T ATF4 luciferase reporter
[7] = Homo sapiens, HEK-293T, 3 h, 1 μM test compound, 100 nM thapsigargin, 3 hours, HEK293T ATF4 luciferase reporter

IC50 (ATF4; 100 nM thapsigargin, 3 hours, HEK293T ATF4 luciferase reporter)	Compound	percent recovery of protein translation in stressed cells (HEK293T cells; 1 μM (FIG. 4))	% Recovery of protein expression (100 nM test compound) ([1]; CHO cells stressed with 300 nM Tg, 100 nM compound, Tg alone = 0%)	activity at 1 µM [1, 3]	activity at 1 µM [1, 4]	inhibition at 0.1 µM (ATF4; [5])	IC50 (ATF4; [6])	inhibition at 1 µM (ATF4; [7])	restoration of protein translation in stressed cells (HEK293T cells; up to 200-fold its IC50 value (FIG. 2))	long-term potentiation (LTP, fEPSP slope) 60 min after theta burst stimulation [2]	inhibition at 0.1 µM (ATF4; Homo sapiens, HEK-293T, 3 h)	inhibition at 1 µM (ATF4; Homo sapiens, HEK-293T, 3 h)	IC50 (ATF4; Homo sapiens, HEK-293T, 3 h)
	O=C(COc1ccc(Cl)c(F)c1)NC1CCN(NC(=O)COc2ccc(Cl)c(F)c2)CC1 [Compound 4, N,N′-(piperidine-1,4-diyl)bis(2-(4-chloro-3-fluorophenoxy)acetamide)]	> 100%	83.5%	105%	169%	93.2%	3.1 nM	94.7%					
	O=C(COc1ccc(Cl)c(F)c1)NN1CCC(NC[C@@H](O)COc2ccc(Cl)c(F)c2)CC1 (single isomer, unassigned) [Compound 52]			113%	75.8%	75.3%	26.9 nM	81.2%					
5 nM	O=C(COc1ccc(Cl)cc1)N[C@H]1CC[C@H](NC(=O)COc2ccc(Cl)cc2)CC1 [ISRIB, reference compound]								only partially restores protein translation	partial LTP recovery			
	O=C(NN1CCN(C[C@H](O)COc2ccc(Cl)c(F)c2)CC1)c1cc2cc(Cl)ccc2o1 [Compound 49, (S)-5-chloro-N-(4-(3-(4-chloro-3-fluorophenoxy)-2-hydroxypropyl)piperazin-1-yl)benzofuran-2-carboxamide]			82.3%	70.7%	55.4%	69.7 nM	100%					
	O=C(NN1CCN(C[C@@H](O)COc2ccc(Cl)c(F)c2)CC1)c1ccc(OC(F)(F)F)cc1 [Compound 62, (R)-N-(4-(3-(4-chloro-3-fluorophenoxy)-2-hydroxypropyl)piperazin-1-yl)-4-(trifluoromethoxy)benzamide]			99.5%	40.2%	85.9%	< 100 nM	88.8%					
	O=C(COc1ccc(Cl)c(F)c1)NC1CCN(NC(=O)[C@H]2CNc3cc(Cl)ccc3O2)CC1 [Compound 46, (R)-6-chloro-N-(4-(2-(4-chloro-3-fluorophenoxy)acetamido)piperidin-1-yl)-3,4-dihydro-2H-benzo[b][1,4]oxazine-2-carboxamide]			114%	63.3%	100%	3.6 nM	99.3%					
	O=C(NN1CCC(NC[C@@H](O)COc2ccc(Cl)c(F)c2)CC1)c1ccc(Cl)cn1 [Compound 68, (R)-5-chloro-N-(4-((3-(4-chloro-3-fluorophenoxy)-2-hydroxypropyl)amino)piperidin-1-yl)picolinamide]			81.8%	49.3%	9%		50.9%					
	O=C(NN1CCN(CCCOc2ccc(Cl)c(F)c2)CC1)C1CNc2cc(Cl)ccc2O1 (centres unmarked) [Compound 44, 6-chloro-N-(4-(3-(4-chloro-3-fluorophenoxy)propyl)piperazin-1-yl)-3,4-dihydro-2H-benzo[b][1,4]oxazine-2-carboxamide]			146%	120%						51.5%	82%	151 nM
	O=C(NN1CCN(CC(O)COc2ccc(Cl)c(F)c2)CC1)c1ccc2cc(Cl)ccc2c1 (centres unmarked) [Compound 14, 6-chloro-N-(4-(3-(4-chloro-3-fluorophenoxy)-2-hydroxypropyl)piperazin-1-yl)-2-naphthamide]			139%	175%						89.3%	98.9%	10.2 nM
	O=C(NN1CCC(NC[C@@H](O)COc2ccc(Cl)c(F)c2)CC1)c1ccc2cc(Cl)ccc2n1 [Compound 56, (R)-6-chloro-N-(4-((3-(4-chloro-3-fluorophenoxy)-2-hydroxypropyl)amino)piperidin-1-yl)quinoline-2-carboxamide]			155%	46.1%	63.4%	71.7 nM	75.6%					
	O=C(NN1CCN(C[C@@H](O)COc2ccc(Cl)c(F)c2)CC1)c1ccc(Cl)cc1 [Compound 63, (R)-4-chloro-N-(4-(3-(4-chloro-3-fluorophenoxy)-2-hydroxypropyl)piperazin-1-yl)benzamide]			107%	16.4%	14.8%	< 1000 nM	84.6%					
	O=C(COc1ccc(Cl)c(F)c1)NN1CCC(NC[C@H](O)COc2ccc(Cl)c(F)c2)CC1 [Compound 53, (S)-2-(4-chloro-3-fluorophenoxy)-N-(4-((3-(4-chloro-3-fluorophenoxy)-2-hydroxypropyl)amino)piperidin-1-yl)acetamide]			83.7%	46.2%	36.1%	268 nM	69.8%					
